Where two headings read alike, the source gives them in different places.

One may read the Solubility as the dissolved amount per volume that the medium holds. High values mean much dissolved substance, low ones little dissolved substance.

For data set [1] the following is noted: 1.5 T, 37°C, from Rohrer et al., cited from earlier work; for r1 bovine plasma: bovine plasma instead of human plasma.
A short description of data set [2]: Complex stability (transmetallation with Zn2+, proton relaxometry). Type of data set: physicochemical. The conditions noted are these: 72 hours, 2.5 mM Zn2+, 26 mM phosphate buffer, 37°C, pH 7.4; 1.41 T. As for the experimental part: The used method is described elsewhere (Laurent S et al., Stability of MRI paramagnetic contrast media: a proton relaxometric protocol for transmetallation assessment. Invest Radiol. 2001 Feb;36(2):115-22). In brief: A solution containing 2.5 mmol/L of test compound and 2.5 mmol/L ZnCl2 in 26 mM phosphate buffer (KH2PO4 Merck; 1.09439.1000, #HC748513, pH 7,00), was incubated at 37°C over a period of at least 3 days. If test compounds are instable under these conditions, transmetallation during this test would lead to the formation of the Zn^2+ complex of the test item, while Gd^3+ is released and precipitated as highly insoluble GdPO4.
After 3d of incubation T1 relaxation time was observed. […] Table 2: Transmetallation stability [%] of paramagnetic contrast agents over 72 hours (2.5 mM Zn2+, 26 mM phosphate buffer, 37°C, pH 7.4).

Data set [3] deals with T1, OATP1B3 (Homo sapiens, UniProt Q9NPD5).
T1 sequence (Q9NPD5 1-702): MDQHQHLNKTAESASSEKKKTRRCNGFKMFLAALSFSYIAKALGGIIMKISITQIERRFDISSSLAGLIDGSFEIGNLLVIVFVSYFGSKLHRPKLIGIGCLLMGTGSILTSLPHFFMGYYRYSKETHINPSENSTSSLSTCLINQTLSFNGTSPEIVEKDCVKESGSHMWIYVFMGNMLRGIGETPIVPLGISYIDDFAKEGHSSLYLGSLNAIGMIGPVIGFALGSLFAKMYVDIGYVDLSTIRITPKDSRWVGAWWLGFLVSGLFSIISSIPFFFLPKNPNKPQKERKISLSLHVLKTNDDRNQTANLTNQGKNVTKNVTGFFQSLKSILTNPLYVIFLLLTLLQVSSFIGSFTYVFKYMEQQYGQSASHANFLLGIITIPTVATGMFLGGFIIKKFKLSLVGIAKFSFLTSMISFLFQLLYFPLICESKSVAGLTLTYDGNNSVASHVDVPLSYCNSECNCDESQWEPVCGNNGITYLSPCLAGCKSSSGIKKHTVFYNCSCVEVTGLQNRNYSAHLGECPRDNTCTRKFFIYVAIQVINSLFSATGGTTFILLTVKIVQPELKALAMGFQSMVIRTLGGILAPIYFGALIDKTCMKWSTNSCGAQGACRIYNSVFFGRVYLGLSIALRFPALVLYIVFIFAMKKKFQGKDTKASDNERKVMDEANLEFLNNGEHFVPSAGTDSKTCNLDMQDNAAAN
Description: Uptake into stable transfected OATP1B3 HEK 293 cells. The class given is cell-based.

Data set [4] in a line: Relaxivity measurements at 1.41 T in water and human plasma. The conditions noted are these: 37°C, normalized to Gd. The class given is physicochemical. As for the experimental part:
Relaxivity measurements at 1.41 T were performed using a MiniSpec mq60 spectrometer (Bruker Analytik, Karlsruhe, Germany) operating at a resonance frequency of 60 MHz and a temperature of 37°C. The T1 relaxation times were determined using the standard inversion recovery (IR) method with a fixed relaxation delay of at least 5 × T1. The variable inversion time (TI) was calculated automatically by the standard software of the MiniSpec mq60 (8 steps). The T2 measurements were performed by using a Carr-Purcell-Meiboom-Gill (CPMG) pulse sequence, applying a relaxation delay of at least 5 × T1.
Each relaxivity measurement was performed using three different Gd concentrations (3 concentrations between 0.05 and 2 mM). The T1 and T2 relaxation times of the example compounds 1 to 10 were measured in different media for example in water and human plasma. Human plasma preparation: For each experiment fresh blood was taken from a volunteer using 10 mL citrate-tubes (Sarstedt S-Monovette 02.1067.001, 10 mL, Citrate). The 10 mL citrate-tubes were carefully inverted 10 times to mix blood and anticoagulant and centrifuged for 15min at 1811 g at RT (Eppendorf, Centrifuge 5810R).
The relaxivities ri (where i=1, 2) were calculated based on the measured relaxation rates Ri in water and plasma: ri = (Ri−Ri(0))/CGd [formula] where Ri(0) represent the relaxation rate of the respective solvent and CGd the concentration of the compound normalized to the Gadolinium. The Gadolinium concentrations of the investigated solutions were verified by Inductively Coupled Plasma Mass Spectrometry (ICP-MS Agilent 7500a, Waldbronn, Germany). Table 3: Relaxivities of investigated compounds in water and human plasma at 1.41 T and relaxivities of Reference compounds 1-3 (RC1-RC3) at 1.5 T in water and bovine plasma. All values are measured at 37°C and normalized to Gd and given in L mmol-1 s-1.

The nature of data set [5]: Water solubility in aqueous buffer. The class given is physicochemical. As for the experimental part:
The exploratory water solubility of the compounds is determined at room temperature (20°C) in 0.5 mL buffer solution (10 mM Tris-HCI, pH 7.4) in the microcentrifuge tubes (Eppendorf, 2.0 mL safe-lock caps). The solid compounds were added stepwise to the buffer solution. More substance is added once all the suspended material is dissolved until an equilibrium between undissolved and dissolved substance is reached. The suspension was mixed using a shaker (Heidolph Reax 2000) and treated 5 min in an ultrasound bath (Bandelin, Sonorex Super RK255H). The Gadolinium concentration of the test substance in the clear solution is measured by ICP-MS. Table 1: Solubilities of compounds in aqueous buffer at 20°C (pH 7.4).

In data set [6] the test system is freshly isolated rat hepatocytes. Description: Uptake into freshly isolated rat hepatocytes. The conditions noted are these: rat hepatocyte uptake with OATP1B1/1B3 inhibitor Rifampicine, test item and inhibitor each 100 µM.
Description: The rat hepatocytes were incubated (2.5 ·10^5 cells/well) for 2.5 to 4h in collagen coated 24-well plates (Fa. Beckton Dickinson Biocoat, cell environments, Collagen I Cellware) in Williams E-medium (Fa. Sigma W1878) in an incubator (37°C, 5% CO2 and 95% oxygen). After incubation the adherent hepatocytes were washed once with 37°C Hepes carbonate transport buffer (500 µL/well). The test items and RC1 were prepared from stock solutions (180 to 500 mM concentration) in Hepes carbonate transport buffer at pH 7.4 to reach a final concentration of 100 µmοl Gd/L. The specific uptake of the test item or RC1 into rat hepatocytes via OATP1 B1 and OATP1 B3 was challenged using a known OATP1B1/1B3 inhibitor (Rifampicine, Fa. Sigma R3501, test item and inhibitor 1:1 each 100 µM final concentration). The prepared rat hepatocyte plates were incubated with test solutions (500 µL/well) at 37°C for 10 min using a thermoshaker (Fa. Grant Bio, PHMP). Triplicates were performed for each test item. After incubating the cells were washed once with cold PBS buffer (Fa. Gibco, Dulbeccos PBS (+)). After washing the intact hepatocytes were lysed by addition of 500 µL cold 0.01 % Triton-X 100 in Millipore water for 1h. […] After 1h 500 µL of 10 nM Terbium ICP-MS standard was added in 2% nitric acid and 0.01% Triton 100 before the Gadolinium concentrations in the lysate were measured using ICP-MS (Agilent 8900, singleQuad, integr. Time 0.3 s, no gas, 5 replicates, Gd m/z 157, Tb m/z 159). As a reference standard RC1 is used in the same well plate. The hepatocyte uptake of the test compound is calculated relative to RC1 (resulting in the unit % of RC1).
The target in data set [7] is T2, OATP1B1 (Homo sapiens, UniProt Q9Y6L6).
T2 sequence (Q9Y6L6 1-691): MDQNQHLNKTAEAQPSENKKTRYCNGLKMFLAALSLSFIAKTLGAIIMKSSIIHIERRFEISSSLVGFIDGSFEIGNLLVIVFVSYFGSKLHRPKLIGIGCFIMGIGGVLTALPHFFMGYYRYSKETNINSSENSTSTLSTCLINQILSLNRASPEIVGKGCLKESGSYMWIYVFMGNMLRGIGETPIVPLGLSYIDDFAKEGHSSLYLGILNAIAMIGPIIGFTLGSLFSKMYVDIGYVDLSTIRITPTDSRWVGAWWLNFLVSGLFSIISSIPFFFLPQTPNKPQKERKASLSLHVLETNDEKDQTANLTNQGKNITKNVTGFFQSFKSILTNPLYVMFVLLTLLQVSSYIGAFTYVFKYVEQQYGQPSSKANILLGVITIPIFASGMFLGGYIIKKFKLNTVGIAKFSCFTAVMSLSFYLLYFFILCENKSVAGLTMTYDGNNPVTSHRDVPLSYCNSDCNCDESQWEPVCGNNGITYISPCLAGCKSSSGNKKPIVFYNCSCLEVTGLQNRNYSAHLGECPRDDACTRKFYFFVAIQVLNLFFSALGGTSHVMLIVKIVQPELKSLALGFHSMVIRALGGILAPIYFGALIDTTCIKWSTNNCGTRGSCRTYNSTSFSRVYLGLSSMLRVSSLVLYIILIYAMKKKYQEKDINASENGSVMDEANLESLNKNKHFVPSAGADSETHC
Description: Uptake into stable transfected OATP1B1 HEK 293 cells. The class given is cell-based.

For data set [8] the following is noted: in vivo; cited from earlier work.
The mark [9] stands for this setting: OATP1B3-HEK 293 cell uptake with Rifampicine.
Setting [10] is: aqueous buffer 10 mM Tris-HCl, pH 7.4, 20°C, Gd by ICP-MS.
Where [11] appears, read: OATP1B1-HEK 293 cell uptake with Rifampicine.

As for `O=C([O-])CN1CCN(CC(=O)[O-])CCN([C@H](CO)[C@H](O)CO)CCN(CC(=O)[O-])CC1.[Gd+3]` (racemic) [RC3, gadobutrol], in data set [1], the r1 bovine plasma was 5.2 L/mmol/s and the r1 water was 3.3 L/mmol/s. The “Stability (transmetallation stability, T1 relaxation rates R1n/R10)” value (shortened to “Stability”) in data set [2] was “stable”.

For `COCCOCCOCCOc1ccc(C[C@H]2CN(CC(=O)[O-])CCN(CC(=O)[O-])CCN(CC(=O)O)CCN2CC(=O)[O-])cc1.[Gd+3]` [Example 1, Gadolinium-2,2',2"-[(2S)-10-(carboxymethyl)-2-(4-{2-[2-(2-methoxyethoxy)-ethoxy]ethoxy}benzyl)-1,4,7,10-tetraazacyclododecane-1,4,7-triyl]triacetate], the “Inhibition Rifampicine” value in data set [3] (setting [9]) is 92 % inhibition; in data set [6], 90 % inhibition; in data set [7] (setting [11]) it was 21 % inhibition. The compound further had a r1 human plasma in data set [4] of 6.6 L/mmol/s. The r1 water in data set [4] was 5.1 L/mmol/s. Besides, the Solubility in data set [5] (setting [10]) is given as over 0.201 mol/L.

Turning to `CCOCCOCCOc1ccc(C[C@H]2CN(CC(=O)[O-])CCN(CC(=O)[O-])CCN(CC(=O)O)CCN2CC(=O)[O-])cc1.[Gd+3]` [Example 2, Gadolinium-2,2',2"-[(2S)-10-(carboxymethyl)-2-{4-[2-(2-ethoxyethoxy)ethoxy]benzyl}-1,4,7,10-tetraazacyclododecane-1,4,7-triyl]triacetate], the “Inhibition Rifampicine” value in data set [3] (setting [9]) is 86 % inhibition; in data set [6] it was 93 % inhibition; in data set [7] (setting [11]), 0 % inhibition. Also, the r1 human plasma in data set [4] amounted to 5.9 L/mmol/s. Besides, the r1 water in data set [4] turned out to be 4.9 L/mmol/s. Moreover, the Solubility in data set [5] (setting [10]) is reported as over 0.055 mol/L. For the same compound, in data set [2], the “Stability” value worked out at 95%.

Regarding `COCCOCCOCCOc1ccc(C[C@@H]2CN(CC(=O)[O-])CCN(CC(=O)[O-])CCN(CC(=O)O)CCN2CC(=O)[O-])cc1.[Gd+3]` [Example 3, Gadolinium-2,2',2"-[(2R)-10-(carboxymethyl)-2-(4-(2-[2-(2-methoxyethoxy)ethoxy]ethoxy}benzyl)-1,4,7,10-tetraazacyclododecane-1,4,7-triyl]triacetate], the “Inhibition Rifampicine” value in data set [3] (setting [9]) was 84 % inhibition; in data set [6], 83 % inhibition; in data set [7] (setting [11]), 31 % inhibition. For the same compound, the r1 human plasma in data set [4] was 6.8 L/mmol/s. Besides, in data set [4], the r1 water turned out to be 5.0 L/mmol/s. Also, the Solubility in data set [5] (setting [10]) is given as over 0.166 mol/L.

On to `CCOCCOCCOCCOc1ccc(C[C@H]2CN(CC(=O)[O-])CCN(CC(=O)[O-])CCN(CC(=O)O)CCN2CC(=O)[O-])cc1.[Gd+3]` [Example 5, Gadolinium-2,2',2"-[(2S)-10-(carboxymethyl)-2-(4-{2-[2-(2-ethoxyethoxy)ethoxy]ethoxy}benzyl)-1,4,7,10-tetraazacyclododecane-1,4,7-triyl]triacetate], for which the “Inhibition Rifampicine” value in data set [3] (setting [9]) came out at 96 % inhibition; in data set [6], 89 % inhibition; in data set [7] (setting [11]) it was 41 % inhibition. For the same compound, the r1 human plasma in data set [4] was 5.7 L/mmol/s. In data set [4], this compound registered a r1 water of 5.1 L/mmol/s. Further, the Solubility in data set [5] (setting [10]) is over 0.284 mol/L. For the same compound, in data set [2], the “Stability” value turned out to be 96%.

With `CCOCCOCCOc1ccc(C[C@H]2CN(CC(=O)[O-])CCN(CC(=O)[O-])CCN(CC(=O)O)CCN2CC(=O)[O-])nc1.[Gd+3]` [Example 6, Gadolinium 2,2',2"-[(2S)-10-(carboxymethyl)-2-({5-[2-(2-ethoxyethoxy)ethoxy]pyridin-2-yl}methyl)-1,4,7,10-tetraazacyclododecane-1,4,7-triyl]triacetate], the entries for the “Inhibition Rifampicine” value in data set [3] (setting [9]), in data set [6] and in data set [7] (setting [11]) were 65 % inhibition, 91 % inhibition and 2 % inhibition, respectively. This compound also showed a r1 human plasma in data set [4] of 5.9 L/mmol/s. This compound also showed a r1 water in data set [4] of 5.3 L/mmol/s.

Take `CCOc1ccc(CC(CN(CCN(CC(=O)[O-])CC(=O)[O-])CC(=O)[O-])N(CC(=O)[O-])CC(=O)[O-])cc1.[Gd+3].[Na+].[Na+]` (stereo not drawn) [RC1, gadoxetate disodium, reference compound]: the r1 bovine plasma in data set [1] is 6.9 L/mmol/s. Besides, the r1 water in data set [1] is 4.7 L/mmol/s. Moreover, the “Inhibition Rifampicine” value came out at 99 % inhibition in data set [3], 97 % inhibition in data set [6] and 81 % inhibition in data set [7]. Further, the Solubility in data set [5] (pH 7.4) is listed as over 0.250 mol/L. Further, in data set [8], the “excreted into the bile” value is given as “up to 50 % of the administered dose”.

Regarding `O=C([O-])CN(CCN(CC(=O)[O-])CC(=O)[O-])CCN(CC(=O)[O-])C(COCc1ccccc1)C(=O)[O-].[Gd+3].[H+].[H+]` (stereo not drawn) [RC2, gadobenic acid], in data set [1], the r1 bovine plasma is 6.3 L/mmol/s and the r1 water was 4.0 L/mmol/s. The “Inhibition Rifampicine” value in data set [6] came out at 79 % inhibition. Besides, the “secreted into the bile” value in data set [8] is on record as 3-to-5%.

These data come from EP4335840A1, “NEW CONTRAST AGENTS FOR USE IN DIAGNOSTIC IMAGING” (priority 2022, dated 2024).
